System: bone marrow stromal cells of mice (ATCC CRL-2749) differentiated into adipocytes
Experiment: Promoting lipolysis: glycerol outside the cells measured by glycerol assay kit in adipocytes differentiated from bone marrow stromal cells
Format: cell-based
Conditions: cultured at 37° C. for 7 days, OD 540 nm, FIG. 12; for lipolysis promoted in comparison with the control group: 10 μg compound per mL in the well
Description: According to the present embodiment, bone marrow stromal cells of mice were used for testing the efficacy of the compound TC-CA-01, the compound TCI-CA-02, the compound TC-CA-03, the compound TCI-CA-04, and the compound TCI-CA-05 for prompting lipolysis. The bone marrow stromal cells of mice were purchased from American Type Culture Collection (American ATCC®), and the No. was CRL-2749M. Before differentiation, the cells were cultured in a pre-adipocyte expansion medium, including 90 vol % of an α-MEM (Minimum Essential Medium Eagle-Alpha Modification, purchased from Gibco, No. 11095080, America) cell culture medium, and 10 vol % of fetal bovine serum (purchased from Gibco, No. 10437-028, America). In addition, 1.0 vol % of penicillin-streptomycin (purchased from Gibco, No. 15140122, America) was added. A differentiation medium was used for differentiating the bone marrow stromal cells of mice, and included 90 vol % of α-MEM cell culture medium, and 10 vol % of fetal bovine serum. In addition, 1.0 vol % of penicillin-streptomycin was added.
The bone marrow stromal cells of mice were inoculated in a culture tray by 8×10^4 cells/0.5 mL of the above pre-adipocyte expansion medium in each well. Culture was performed at 37° C. for 7 days. The culture medium in each well was replaced by the above mentioned fresh differentiation medium once every 3 days during the period. After 7 days, a microscope was used to observe and confirm that the lipid droplets have formed so as to ensure the cells completely differentiated into adipocytes. […]
Then, a value of glycerol outside the cells was measured by a glycerol assay kit (purchased from Cayman Chemical, No. 10011725, America). […] This kit quantified the value of glycerol outside the cells by measuring the content of a product of a coupling enzyme reaction system capable of generating a bright purple, and used a glycerol standard in the kit to build a standard curve so as to reckon the value of the glycerol outside the cells of a sample. […]

## COc1cc(/C=C/C(=O)O)ccc1O [TCI-CA-01, 4-hydroxy-3-methoxycinnamic acid]
10 μg of each compound per mL in the well
  efficacy for promoting lipolysis in comparison with the control group (result in words): effectively promoted

## O=C1CC(c2ccc(O)cc2)Oc2cc(O)cc(O)c21 (stereo not drawn) [TCI-CA-03, 5,7-Dihydroxy-2-(4-hydroxyphenyl) chroman-4-one]
  lipolysis promoted in comparison with the control group: 15%

## C[C@@H]1O[C@@H](O[C@H]2[C@H](Oc3cc(O)c4c(c3)O[C@H](c3ccc(O)cc3)CC4=O)O[C@H](CO)[C@@H](O)[C@@H]2O)[C@H](O)[C@H](O)[C@H]1O [TCI-CA-02]
  lipolysis promoted in comparison with the control group: 8%

Source: patent publication US20210069223A1, “USE OF COMPOUND FOR PREVENTING AND/OR TREATING OBESITY” (TCI CO., LTD., priority 2019, published 2021)
